What follows are compounds tested against T1, hSTING (Homo sapiens, UniProt Q86WV6, G230A/H232R/R293Q/R71H) (assay: STING reporter assay (luciferase reporter) in THP1-Dual KO-IFNAR2 cells activated with 2′3′cGAMP). Conditions: 15 μM 2′3′cGAMP, 24 h, luciferase reporter activity.
T1 construct: host or cells: THP1-Dual KO-IFNAR2 cells
Type: cell-based
Experimental: STING pathway activation by the compounds described herein is measured using THP1-Dual™ cells (KO-IFNAR2).
THP1-Dual™ KO-IFNAR2 Cells (obtained from invivogen) are maintained in RPMI, 10% FCS, 5 ml P/S, 2 mM L-glut, 10 mM Hepes, and 1 mM sodium pyruvate. Compounds are spotted in empty 384 well tissue culture plates (Greiner 781182) by Echo for a final concentration of […]. Cells are plated into the TC plates at 40 μL per well, 2×10E6 cells/mL. For activation with STING ligand, 2′3′cGAMP (MW 718.38, obtained from Invivogen), is prepared in Optimem media.
The following solutions are prepared for each 1×384 plate: • Solution A: 2 mL Optimem with one of the following stimuli: • 60 uL of 10 mM 2′3′cGAMP→150 μM stock • Solution B: 2 mL Optimem with 60 μL Lipofectamine 2000→Incubate 5 min at RT
2 mL of solution A and 2 ml Solution B is mixed and incubated for 20 min at room temperature (RT). 20 uL of transfection solution (A+B) is added on top of the plated cells, with a final 2′3′cGAMP concentration of 15 μM. The plates are then centrifuged immediately at 340 g for 1 minute, after which they are incubated at 37° C., 5% CO2, >98% humidity for 24 h. Luciferase reporter activity is then measured. EC50 values were calculated by using standard methods known in the art.
Luciferase Reporter Assay:
10 μL of supernatant from the assay is transferred to white 384-plate with flat bottom and squared wells. one pouch of QUANTI-Luc™ Plus is dissolved in 25 mL of water. 100 μL of QLC Stabilizer per 25 mL of QUANTI-Luc™ Plus solution was added. 50 μL of QUANTI-Luc™ Plus/QLC solution per well is then added. Luminescence is measured on a Platereader (e.g., Spectramax I3X (Molecular Devices GF3637001)).
Luciferase reporter activity is then measured. EC50 values are calculated by using standard methods known in the art.

T1 sequence (Q86WV6 whole entry R71H/G230A/H232R/R293Q): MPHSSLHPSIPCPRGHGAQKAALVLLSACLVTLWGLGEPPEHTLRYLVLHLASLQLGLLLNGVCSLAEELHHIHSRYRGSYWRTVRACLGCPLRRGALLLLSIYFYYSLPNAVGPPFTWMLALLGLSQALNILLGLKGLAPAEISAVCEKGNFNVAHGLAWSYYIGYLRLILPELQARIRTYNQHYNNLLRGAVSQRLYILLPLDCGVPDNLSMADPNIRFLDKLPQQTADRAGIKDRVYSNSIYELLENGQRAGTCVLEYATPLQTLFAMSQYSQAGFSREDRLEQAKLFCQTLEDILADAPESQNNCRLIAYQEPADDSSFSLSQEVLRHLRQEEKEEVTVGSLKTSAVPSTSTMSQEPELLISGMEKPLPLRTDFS

| EC50 | SMILES |
| --- | --- |
| 5 to 100 µM | CC(c1ccc(-c2cnc3[nH]cc(NC(=O)Nc4ccc(C(F)(F)F)cc4)c3c2)cc1)N(C)C (centres unmarked) [Compound 196] |
| 1 to 5 µM | CN1CCN(c2ccc(-c3cnc4[nH]cc(NC(=O)Nc5ccc(C(F)(F)F)cc5)c4c3)cc2)CC1 [Compound 197] |
| 1 to 5 µM | Cn1cc(-c2cnc3[nH]cc(NC(=O)Nc4ccc(C(F)(F)F)cc4)c3c2)c(C(F)(F)F)n1 [Compound 198] |
| 5 to 100 µM | O=C(Nc1ccc(C(F)(F)F)cc1)Nc1c[nH]c2nccc(C3=CCOCC3)c12 [Compound 203] |
| 1 to 5 µM | CN(C)S(=O)(=O)c1cccc(-c2cnc3[nH]cc(NC(=O)Nc4ccc(C(F)(F)F)cc4)c3c2)c1 [Compound 204] |
| 5 to 100 µM | CC(C)(O)c1cccc(-c2ccnc3[nH]cc(NC(=O)Nc4ccc(C(F)(F)F)cc4)c23)c1 [Compound 205] |
| 5 to 100 µM | O=C(Nc1ccc(C(F)(F)F)cc1)Nc1c[nH]c2nccc(-c3ccncc3)c12 [Compound 206] |
| 5 to 100 µM | CS(=O)(=O)c1ccc(-c2cnc3[nH]cc(NC(=O)Nc4ccc(C(F)(F)F)cc4)c3c2)cc1 [Compound 207] |
| 1 to 5 µM | CC(C)(O)c1ccc(-c2cnc3[nH]cc(NC(=O)Nc4ccc(C(F)(F)F)cc4)c3c2)cc1 [Compound 209] |
| 1 to 5 µM | O=C(Nc1ccc(C(F)(F)F)cc1)Nc1c[nH]c2ncc(-c3cccnc3)cc12 [Compound 210] |
| 0.2 to 1 µM | O=C(Nc1ccc(C(F)(F)F)cc1)Nc1c[nH]c2ncc(-c3ccc(OCC4CC4)nc3)cc12 [Compound 211] |
| 1 to 5 µM | O=C(Nc1ccc(C(F)(F)F)cc1)Nc1c[nH]c2ncc(C3=CCOCC3)cc12 [Compound 212] |
| 5 to 100 µM | CN1CC=C(c2cnc3[nH]cc(NC(=O)Nc4ccc(C(F)(F)F)cc4)c3c2)CC1 [Compound 213] |
| 5 to 100 µM | COc1ccc(F)c(F)c1-c1cnc2[nH]cc(NC(=O)Nc3ccc(C(F)(F)F)cc3)c2c1 [Compound 214] |
| 1 to 5 µM | CC(C)(O)c1cccc(-c2cnc3[nH]cc(NC(=O)Nc4ccc(C(F)(F)F)cc4)c3c2)c1 [Compound 215] |
| 5 to 100 µM | CCCCc1ccc(N(CC)C(=O)Nc2c[nH]c3ncc(F)cc23)cc1 [Compound 245] |
| 1 to 5 µM | CCCCc1ccc(N(C)C(=O)Nc2c[nH]c3ncc(F)cc23)cc1 [Compound 246] |
| 1 to 5 µM | O=C(Nc1c[nH]c2ncc(F)cc12)NC1CCC2(CCC2)CC1 [Compound 247] |
| 0.2 to 1 µM | O=C(Nc1c[nH]c2ncc(F)cc12)NC1CCC(Cc2ccccc2)CC1 (centres unmarked) [Compound 248] |
| 5 to 100 µM | Nc1cnc2[nH]cc(NC(=O)N3CC(c4ccccc4)C3)c2c1 [Compound 249] |
| 0.2 to 1 µM | O=C(Nc1ccc(C2CCC2)c(F)c1)Nc1c[nH]c2ncc(F)cc12 [Compound 250] |
| 0.2 to 1 µM | C#Cc1cccc(NC(=O)Nc2c[nH]c3ncc(F)cc23)c1 [Compound 251] |
| 5 to 100 µM | O=C(Nc1c[nH]c2ncc(F)cc12)NC1CCN(CC(F)(F)F)CC1 [Compound 252] |

The next lines start with the compound.

| SMILES | EC50 |
| --- | --- |
| CCCCC1CCN(C(=O)Nc2c[nH]c3ncccc23)CC1 [Compound 132] | 1 to 5 µM |
| O=C(Nc1c[nH]c2ncccc12)NC1CC(c2ccccc2)C1 (centres unmarked) [Compound 133] | 5 to 100 µM |
| O=C(Nc1c[nH]c2ncccc12)NC1CCCc2ccccc21 (centres unmarked) [Compound 135] | 5 to 100 µM |
| O=C(Nc1c[nH]c2ncccc12)NC1CCc2ccccc2C1 (centres unmarked) [Compound 136] | 5 to 100 µM |
| O=C(Nc1c[nH]c2cnccc12)NC1CCC(c2ccccc2)CC1 (centres unmarked) [Compound 137] | 1 to 5 µM |
| O=C(Nc1ccc(C(F)(F)F)cn1)Nc1c[nH]c2ncc(F)cc12 [Compound 138] | 0.2 to 1 µM |
| O=C(Nc1cccc(C2CCCCC2)c1)Nc1c[nH]c2cccnc12 [Compound 139] | 0.2 to 1 µM |
| CCCCC1CCN(C(=O)Nc2c[nH]c3cccnc23)CC1 [Compound 140] | 1 to 5 µM |
| O=C(Nc1c[nH]c2cccnc12)NC1CCC(C(F)(F)F)CC1 (centres unmarked) [Compound 141] | 5 to 100 µM |
| O=C(Nc1c[nH]c2cccnc12)NC1CCC2(CCC2)CC1 [Compound 142] | 1 to 5 µM |
| O=C(Nc1ccc(C(F)(F)F)cc1)Nc1c[nH]c2ncc(-c3ccccc3)cc12 [Compound 143, 1-(5-phenyl-1H-pyrrolo[2,3-b]pyridin-3-yl)-3-(4-(trifluoromethyl)phenyl)urea] | 1 to 5 µM |
| O=C(Nc1ccc(C(F)(F)F)cc1)Nc1c[nH]c2cnccc12 [Compound 144] | 1 to 5 µM |
| O=C(Nc1ccc(C(F)(F)F)cc1)Nc1c[nH]c2ccncc12 [Compound 145] | 0.2 to 1 µM |
| O=C(Nc1ccc(C(F)(F)F)cc1)Nc1c[nH]c2cccnc12 [Compound 146] | 1 to 5 µM |
| O=C(Nc1ccc(C(F)(F)F)cc1)Nc1c[nH]c2ncc(Br)cc12 [Compound 147] | 0.04 to 0.2 µM |
| O=C(Nc1cccc(C(F)(F)F)c1)Nc1c[nH]c2ccncc12 [Compound 148] | 1 to 5 µM |
| O=C(Nc1cccc(C(F)(F)F)c1)Nc1c[nH]c2cnccc12 [Compound 149] | 5 to 100 µM |
| O=C(Nc1cccc(C(F)(F)F)c1)Nc1c[nH]c2ncccc12 [Compound 150] | 1 to 5 µM |
| N#Cc1cnc2[nH]cc(NC(=O)Nc3ccc(C(F)(F)F)cc3)c2c1 [Compound 151] | 0.2 to 1 µM |
| O=C(Nc1ccc(C(F)(F)F)cn1)Nc1c[nH]c2cccnc12 [Compound 152] | 5 to 100 µM |
| CN(C(=O)Nc1c[nH]c2cccnc12)c1ccc(C(F)(F)F)cc1 [Compound 154] | 5 to 100 µM |
| O=C(Nc1ccc(C(F)(F)F)nc1)Nc1c[nH]c2cccnc12 [Compound 156] | 5 to 100 µM |
| O=C(Nc1c[nH]c2cccnc12)NC1CC2CCC(C2)C1 (centres unmarked) [Compound 157] | 5 to 100 µM |
| O=C(Nc1c[nH]c2cccnc12)N1CCC2(CCCC2)CC1 [Compound 159, N-(1H-pyrrolo[3,2-b]pyridin-3-yl)-8-azaspiro[4.5]decane-8-carboxamide] | 5 to 100 µM |

| SMILES | EC50 |
| --- | --- |
| O=C(Nc1c[nH]c2ncccc12)NC1CC2CCC(C2)C1 (centres unmarked) [Compound 160] | 5 to 100 µM |
| O=C(Nc1c[nH]c2ccncc12)NC1CC2CCC(C2)C1 (centres unmarked) [Compound 161] | 5 to 100 µM |
| O=C(Nc1c[nH]c2ncc(-c3ccccc3)cc12)NC1CCC(C(F)(F)F)CC1 (centres unmarked) [Compound 162, 3-[5-phenyl-1H-pyrrolo[2,3-b]pyridin-3-yl]-1l-[4-(trifluoromethyl)cyclohexyl]urea] | 5 to 100 µM |
| Cc1cnc2[nH]cc(NC(=O)Nc3ccc(C(F)(F)F)cc3)c2c1 [Compound 163] | 0.2 to 1 µM |
| O=C(Nc1ccc(C(F)(F)F)cc1)Nc1c[nH]c2cncc(F)c12 [Compound 164] | 5 to 100 µM |
| O=C(Nc1ccc(C(F)(F)F)cc1)Nc1c[nH]c2c(F)cncc12 [Compound 165] | 0.2 to 1 µM |
| O=C(Nc1c[nH]c2ncccc12)NC1CCC(c2ccccc2)CC1 (centres unmarked) [Compound 166] | 0.2 to 1 µM |
| CCCCC1CCCN(C(=O)Nc2c[nH]c3ncccc23)C1 (centres unmarked) [Compound 167] | 5 to 100 µM |
| CCc1cnc(NC(=O)Nc2c[nH]c3ncccc23)s1 [Compound 168] | 5 to 100 µM |
| CCc1ccc(NC(=O)Nc2c[nH]c3ncccc23)nc1 [Compound 169] | 5 to 100 µM |
| CCCCC1CCC(NC(=O)Nc2c[nH]c3ncccc23)CC1 (centres unmarked) [Compound 170] | 0.2 to 1 µM |
| CCc1ccc(CNC(=O)Nc2c[nH]c3ncccc23)cc1 [Compound 171] | 5 to 100 µM |
| CN(C(=O)Nc1c[nH]c2ncc(F)cc12)c1ccc(C(F)(F)F)cc1 [Compound 172] | 5 to 100 µM |
| O=C(Nc1ccc(C(F)(F)F)cc1)Nc1c[nH]c2ncc(F)cc12 [Compound 173, 1-(5-fluoro-1H-pyrrolo[2,3-b]pyridin-3-yl)-3-(4-(trifluoromethyl)phenyl)urea] | 0.04 to 0.2 µM |
| CCc1ccc(NC(=O)Nc2c[nH]c3ncc(F)cc23)cc1 [Compound 174] | 0.04 to 0.2 µM |
| O=C(Nc1ccc(C(F)(F)F)cc1)Nc1c[nH]c2cnc(-c3ccccc3)nc12 [Compound 180] | 5 to 100 µM |
| O=C(Nc1ccc(C(F)(F)F)cc1)Nc1c[nH]c2c(Cl)ncnc12 [Compound 183] | 5 to 100 µM |
| CCc1ccc(NC(=O)Nc2c[nH]c3ncncc23)cc1 [Compound 183b] | 5 to 100 µM |
| CC(C)n1cc(-c2ccnc3[nH]cc(NC(=O)Nc4ccc(C(F)(F)F)cc4)c23)cn1 [Compound 186] | 5 to 100 µM |
| O=C(Nc1ccc(C(F)(F)F)cc1)Nc1c[nH]c2ncc(-c3ccc(N4CCOCC4)nc3)cc12 [Compound 188] | 5 to 100 µM |
| O=C(Nc1ccc(C(F)(F)F)cc1)Nc1c[nH]c2nccc(-c3cccnc3)c12 [Compound 189] | 5 to 100 µM |
| CC(c1ccc(-c2ccnc3[nH]cc(NC(=O)Nc4ccc(C(F)(F)F)cc4)c23)cc1)N(C)C (centres unmarked) [Compound 192] | 5 to 100 µM |
| CC(C)n1cc(-c2cnc3[nH]cc(NC(=O)Nc4ccc(C(F)(F)F)cc4)c3c2)cn1 [Compound 193] | 0.2 to 1 µM |
| CN1CC=C(c2ccnc3[nH]cc(NC(=O)Nc4ccc(C(F)(F)F)cc4)c23)CC1 [Compound 195] | 5 to 100 µM |
